Results on ten molecules are retold here after article PMC4535766, “Antiprotozoal Activity Profiling of Approved Drugs: A Starting Point toward Drug Repositioning” (PLoS ONE, 2015).

pIC50: −log10 of the molar value. Where a name gives a salt, the structure may show the parent alone. Read-outs that look alike come from different tables or passages of the source.

Data set [1] concerns P. falciparum strain K1. As to the kind of experiment: In vitro activity against P. falciparum, serial drug dilution assay. As to conditions: for pIC50: Plasmodium falciparum; for selectivity ratio: rat, Selectivity index: IC50 Cytotoxicity L6/ IC50 P. falciparum. Here is the method: (§1) Drug stock solutions (10mg/ml) were in DMSO (100%). […] Selectivity index (SI) was calculated as IC50 L6 cells/IC50 parasite.

For data set [2], the system named is axenic amastigotes of L. donovani, strain MHOM-ET-67/L82. As to the kind of experiment: In vitro activity against L. donovani axenic amastigotes, serial drug dilution assay. In kind it is cell-based, Leishmania donovani. As to conditions: Leishmania donovani. Here is the method: as §1
For data set [3], the system named is T. b. rhodesiense strain STIB 900, trypomastigotes. As to the kind of experiment: In vitro activity against T. b. rhodesiense, serial drug dilution assay. The conditions noted are these: for pIC50: Trypanosoma brucei. Here is the method: as §1
In data set [4] the test system is T. cruzi, strain Tulahuen C4, intracellular amastigotes. Nature of the data set: microbe, parasite or virus in culture. As to conditions: for pIC50: Trypanosoma cruzi, TULAHUEN
Here is the method:
as §1

Data set [5] can be described thus: Cytotoxicity on L6 cells. As to conditions: rat. The procedure:
as §1

In data set [6] the test system is intracellular amastigotes of L. donovani strain MHOM-ET-67/L82. Nature of the data set: Activity against Leishmania donovani intracellular amastigotes in mouse peritoneal macrophages. As to conditions: Leishmania donovani, Peritoneal macrophage, in Mus musculus. The procedure: After 24 h 1.2 x 10^5 amastigote L. donovani in 100 μl were added. The amastigotes were taken from an axenic culture grown at pH 5.4. Four hours later, the medium containing free amastigote forms was removed and replaced by fresh medium. The next day the medium was replaced by medium with or without a serial drug dilution of seven 3-fold dilution steps covering a range from 30 to 0.04 μg/ml. Parasite growth in the presence of the drug was compared to control wells. After 96 h of incubation, the medium was removed and the slides fixed with methanol for 10 min followed by staining with a 10% Giemsa solution. Infected and non-infected macrophages were counted for the control cultures and those exposed to the serial drug dilutions. The infection rates were determined. The results were expressed as a percentage reduction in parasite burden compared to control wells, and the IC50 was calculated by linear regression analysis. The collection of mouse peritoneal macrophages was done at the Swiss Tropical and Public Health Institute (Basel) according to the rules and regulations for the protection of animal rights ("Tierschutzverordnung") of the Swiss "Bundesamt für Veterinärwesen".

Data set [7] in a line: Cytotoxicity on macrophages infected with L. donovani. In kind it is cell-based, mouse. As to conditions: mouse.
[8] abbreviates: axenic amastigotes, strain MHOM-ET-67/L82, means of two independent assays, read-out: IC50 L. don. axen.
Where [9] appears, read: 96 h, read-out: IC50 L. don. intracell.
Setting [10] is: macrophages infected with L. donovani, read-out: IC50 Cytotox. mac.inf.
Setting [11] is: L. donovani axenic amastigotes, read-out: L. don. axen. IC50.
Where [12] appears, read: read-out: L. don. intracell IC50.
Where [13] appears, read: infected macrophages, read-out: Cytotox. mac.inf. IC50.

Turning to `CN1CCC(=C2c3ccccc3CC(=O)c3sccc32)CC1` [Ketotifen], the pIC50 (usually the negative decadic logarithm of the IC50, by convention in mol/L) in data set [1] (K1, read-out: IC50 P. falc. K1) is 6.12; in data set [2] (setting [8]) it was less than 3.54; in data set [3] (read-out: IC50 T. b. rhod.), 4.82; in data set [4] (read-out: IC50 T. cruzi), 3.85; in data set [5] (L6 cells, IC50 Cytotox. L6, L6 cells, means of two independent assays) it was 3.83; in data set [6] (setting [9]) it was less than 4.01. Also, in data set [1] (in vitro), the “Activity against P. falciparum (in words)” value is “selective activities”. In addition, the selectivity ratio in data set [1] was 196. For the same molecule, the IC50 (commonly the concentration needed to halve the response being measured) at 96 h in data set [7] (mouse peritoneal macrophages infected with L. donovani, macrophages infected with L. donovani, read-out: IC50 Cytotox. mac.inf.) was more than 97 µM.
For the molecule `Cc1oncc1C(=O)Nc1ccc(C(F)(F)F)cc1` [Leflunomide], the pIC50 in data set [1] (K1, read-out: IC50 P. falc. K1) was less than 4.73; in data set [2] (setting [8]), 4.66; in data set [3] (read-out: IC50 T. b. rhod.), 3.67; in data set [4] (read-out: IC50 T. cruzi), 3.82; in data set [5] (IC50 Cytotox. L6), 3.91; in data set [6] (setting [9]) it was less than 3.95. Moreover, the IC50 at 96 h in data set [7] (setting [10]) was more than 111 µM.
Consider `CCC[C@@H]1C[C@@H](C(=O)N[C@@H]([C@H]2O[C@H](SC)[C@H](O)[C@@H](O)[C@H]2O)[C@@H](C)O)N(C)C1` [Lincomycin], for which the negative logarithm of the IC50 (pIC50) is 5.15 in data set [1] (K1, read-out: IC50 P. falc. K1); less than 3.65 in data set [2] (setting [8]); less than 3.65 in data set [3] (read-out: IC50 T. b. rhod.); less than 3.65 in data set [4] (read-out: IC50 T. cruzi); less than 3.65 in data set [5] (IC50 Cytotox. L6); less than 4.13 in data set [6] (setting [9]). In addition, in data set [7] (setting [10]), the IC50 at 96 h was more than 73.8 µM.
For the molecule `Cc1cccc(C)c1OCC(=O)N[C@@H](Cc1ccccc1)[C@@H](O)C[C@H](Cc1ccccc1)NC(=O)[C@H](C(C)C)N1CCCNC1=O` [Lopinavir], the negative-log IC50 (pIC50) in data set [1] (K1, read-out: IC50 P. falc. K1) was 5.72; in data set [2] (setting [8]), 4.93; in data set [3] (read-out: IC50 T. b. rhod.) it was 4.97; in data set [4] (read-out: IC50 T. cruzi), 4.81; in data set [5] (IC50 Cytotox. L6), 4.72; in data set [6] (setting [9]) it was less than 4.32. Besides, the IC50 at 96 h in data set [7] (setting [10]) is more than 47.7 µM.
For `CCN(CCCCOC(=O)c1ccc(OC)c(OC)c1)C(C)Cc1ccc(OC)cc1` (stereo not shown) [Mebeverine], the pIC50 was 5.76 in data set [1] (K1, read-out: IC50 P. falc. K1); less than 3.68 in data set [2] (setting [8]); 4.27 in data set [3] (read-out: IC50 T. b. rhod.); 5.41 in data set [4] (read-out: IC50 T. cruzi); 4.15 in data set [5] (IC50 Cytotox. L6); 4.26 in data set [6] (setting [9]). The selectivity ratio in data set [4] (rat, Selectivity index: IC50 Cytotoxicity L6/ IC50 T. cruzi) turned out to be 18. In addition, the IC50 at 96 h in data set [7] (setting [10]) was more than 69.8 µM.
Take `OC(c1cc(C(F)(F)F)nc2c(C(F)(F)F)cccc12)C1CCCCN1` (stereo not shown) [Mefloquine (Hydrochloride), Mefloquine]: the pIC50 in data set [1] (K1, read-out: IC50 P. falc. K1) is 8.70; in data set [1] (K1, read-out: P. falc. IC50), 8.62; in data set [2] (setting [11]) it was 4.41; in data set [3] (read-out: T. b. rhod. IC50), 6.28; in data set [4] (read-out: T. cruzi IC50), 5.35; in data set [5] (IC50 Cytotox. L6), 5.49. The pIC50 in data set [6] (setting [12]) was 5.62. In addition, the selectivity ratio in data set [1] was 1350. Also, in data set [7] (setting [13]), the MCC at 96 h is 7.23 µM.
In the case of `Cc1ncc([N+](=O)[O-])n1CCO` [Metronidazole], the pIC50 in data set [1] (K1, read-out: IC50 P. falc. K1) was 3.56; in data set [2] (setting [8]) it was 3.31; in data set [3] (read-out: IC50 T. b. rhod.), 3.47; in data set [4] (read-out: IC50 T. cruzi), 3.55; in data set [5] (IC50 Cytotox. L6), 3.47; in data set [6] (setting [9]), less than 3.76. For the same molecule, the “Activity against T. b. rhodesiense (in words)” value in data set [3] (in vitro) is “inactive”. Moreover, the IC50 at 96 h in data set [7] (setting [10]) was more than 175 µM.
Take `CN(C)c1ccc(O)c2c1C[C@H]1C[C@H]3[C@H](N(C)C)C(O)=C(C(N)=O)C(=O)[C@@]3(O)C(O)=C1C2=O` [Minocycline]: the pIC50 in data set [1] (K1, read-out: P. falc. IC50) is 5.45; in data set [2] (setting [11]), 4.34; in data set [3] (read-out: T. b. rhod. IC50), 4.44; in data set [4] (read-out: T. cruzi IC50), 4.65; in data set [5] (Cytotox. L6 IC50) it was 5.03; in data set [6] (setting [12]) it was less than 4.66. Moreover, the concentration for half-maximal inhibition (IC50) at 96 h in data set [7] (setting [13]) is more than 21.9 µM.
Consider `Cc1c(O)cccc1C(=O)N[C@@H](CSc1ccccc1)[C@H](O)CN1C[C@H]2CCCC[C@H]2C[C@H]1C(=O)NC(C)(C)C` [Nelfinavir], for which the pIC50 was 4.98 in data set [1] (K1, read-out: IC50 P. falc. K1); 5.02 in data set [2] (setting [8]); 4.69 in data set [3] (read-out: IC50 T. b. rhod.); 4.99 in data set [4] (read-out: IC50 T. cruzi); 4.92 in data set [5] (IC50 Cytotox. L6); 4.69 in data set [6] (setting [9]). The IC50 at 96 h in data set [7] (setting [10]) was more than 52.8 µM.
In the case of `NC(=O)c1cccnc1` [Nicotinamide], the negative-log IC50 (pIC50) is less than 4.39 in data set [1] (K1, read-out: IC50 P. falc. K1); less than 3.13 in data set [2] (setting [8]); less than 3.13 in data set [3] (read-out: IC50 T. b. rhod.); less than 3.13 in data set [4] (read-out: IC50 T. cruzi); less than 3.13 in data set [5] (IC50 Cytotox. L6); less than 3.61 in data set [6] (setting [9]). Besides, the IC50 at 96 h in data set [7] (setting [10]) is more than 246 µM.
